Laboratory results taken from paper PMC10364322, “Evaluation of chronic drug-induced electrophysiological and cytotoxic effects using human-induced pluripotent stem cell-derived cardiomyocytes (hiPSC-CMs)” (Frontiers in Pharmacology, 2023).
Like-named read-outs stand apart in the source and are kept apart here.

System: hiPSC-CMs (iCell-Cardiomyocytes^2)
Procedure, shortened: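 Monolayers of hiPSC-CMs on fibronectin-coated MEA plates, 50 K/well, kept at 37°C, 5% CO2; compounds added in 0.1% final DMSO after 5-min baseline. Field potential and impedance parameters expressed as mean ± SD percent change from baseline; arrhythmic events noted; cytotoxicity fluorescence normalized to DMSO, Kruskal-Wallis.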

Cc1cn(-c2cc(NC(=O)c3ccc(C)c(Nc4nccc(-c5cccnc5)n4)c3)cc(C(F)(F)F)c2)cn1 [Nilotinib]
BR (beat rate) % change from baseline (0.01 µM, 2h): 1±2%
Beating below threshold, number of observations/total well numbers (0.01 µM, 2h): 0/5
Cessation of beating, number of observations/total well numbers (0.01 µM, 2h): 0/5
EAD, number of observations/total well numbers (0.01 µM, 2h): 0/5
FPD (field-potential duration), % change from baseline (0.01 µM, 2h): 3.9±3.8%
FPDc (field-potential duration corrected by beat-rate), % change from baseline (0.01 µM, 2h): 4.1±4%
Flat T-wave-like, number of observations/total well numbers (0.01 µM, 2h): 0/5
BR (beat rate) % change from baseline (0.01 µM, 24h): -1±3%
Beating below threshold, number of observations/total well numbers (0.01 µM, 24h): 0/5
Cessation of beating, number of observations/total well numbers (0.01 µM, 24h): 0/5
EAD, number of observations/total well numbers (0.01 µM, 24h): 0/5
FPD (field-potential duration), % change from baseline (0.01 µM, 24h): 6.4±4.8%
FPDc (field-potential duration corrected by beat-rate), % change from baseline (0.01 µM, 24h): 6.1±4.9%
Flat T-wave-like, number of observations/total well numbers (0.01 µM, 24h): 0/5
BR (beat rate) % change from baseline (0.01 µM, 48h): -3±2%
Beating below threshold, number of observations/total well numbers (0.01 µM, 48h): 0/5
Cessation of beating, number of observations/total well numbers (0.01 µM, 48h): 0/5
EAD, number of observations/total well numbers (0.01 µM, 48h): 0/5
FPD (field-potential duration), % change from baseline (0.01 µM, 48h): 12.9±12.2%
FPDc (field-potential duration corrected by beat-rate), % change from baseline (0.01 µM, 48h): 11.9±11.5%
Flat T-wave-like, number of observations/total well numbers (0.01 µM, 48h): 0/5
BR (beat rate) % change from baseline (0.01 µM, 72h): -8±2%
Beating below threshold, number of observations/total well numbers (0.01 µM, 72h): 0/5
Cessation of beating, number of observations/total well numbers (0.01 µM, 72h): 0/5
EAD, number of observations/total well numbers (0.01 µM, 72h): 0/5
FPD (field-potential duration), % change from baseline (0.01 µM, 72h): 10.1±2.4%
FPDc (field-potential duration corrected by beat-rate), % change from baseline (0.01 µM, 72h): 7.1±2.3%
Flat T-wave-like, number of observations/total well numbers (0.01 µM, 72h): 0/5
BR (beat rate) % change from baseline (0.01 µM, 96h): -14±3%
Beating below threshold, number of observations/total well numbers (0.01 µM, 96h): 0/5
Cessation of beating, number of observations/total well numbers (0.01 µM, 96h): 0/5
EAD, number of observations/total well numbers (0.01 µM, 96h): 0/5
FPD (field-potential duration), % change from baseline (0.01 µM, 96h): 13.9±2.5%
FPDc (field-potential duration corrected by beat-rate), % change from baseline (0.01 µM, 96h): 8.7±2.6%
Flat T-wave-like, number of observations/total well numbers (0.01 µM, 96h): 0/5
BR (beat rate) % change from baseline (0.1 µM, 2h): -1±1%
Beating below threshold, number of observations/total well numbers (0.1 µM, 2h): 0/5
Cessation of beating, number of observations/total well numbers (0.1 µM, 2h): 0/5
EAD, number of observations/total well numbers (0.1 µM, 2h): 0/5
FPD (field-potential duration), % change from baseline (0.1 µM, 2h): 8.9±9.8%
FPDc (field-potential duration corrected by beat-rate), % change from baseline (0.1 µM, 2h): 8.6±10.1%
Flat T-wave-like, number of observations/total well numbers (0.1 µM, 2h): 0/5
BR (beat rate) % change from baseline (0.1 µM, 24h): -8±3%
Beating below threshold, number of observations/total well numbers (0.1 µM, 24h): 0/5
Cessation of beating, number of observations/total well numbers (0.1 µM, 24h): 0/5
EAD, number of observations/total well numbers (0.1 µM, 24h): 0/5
FPD (field-potential duration), % change from baseline (0.1 µM, 24h): 19.8±3.9 %
FPDc (field-potential duration corrected by beat-rate), % change from baseline (0.1 µM, 24h): 16.6±4.1 %
Flat T-wave-like, number of observations/total well numbers (0.1 µM, 24h): 0/5
BR (beat rate) % change from baseline (0.1 µM, 48h): -8±4%
Beating below threshold, number of observations/total well numbers (0.1 µM, 48h): 0/5
Cessation of beating, number of observations/total well numbers (0.1 µM, 48h): 0/5
EAD, number of observations/total well numbers (0.1 µM, 48h): 0/5
FPD (field-potential duration), % change from baseline (0.1 µM, 48h): 15.4±2.6%
FPDc (field-potential duration corrected by beat-rate), % change from baseline (0.1 µM, 48h): 12.7±3%
Flat T-wave-like, number of observations/total well numbers (0.1 µM, 48h): 0/5
BR (beat rate) % change from baseline (0.1 µM, 72h): -11±4%
Beating below threshold, number of observations/total well numbers (0.1 µM, 72h): 0/5
Cessation of beating, number of observations/total well numbers (0.1 µM, 72h): 0/5
EAD, number of observations/total well numbers (0.1 µM, 72h): 0/5
FPD (field-potential duration), % change from baseline (0.1 µM, 72h): 17.3±1.9%
FPDc (field-potential duration corrected by beat-rate), % change from baseline (0.1 µM, 72h): 12.5±1.7%
Flat T-wave-like, number of observations/total well numbers (0.1 µM, 72h): 0/5
BR (beat rate) % change from baseline (0.1 µM, 96h): -18±4%
Beating below threshold, number of observations/total well numbers (0.1 µM, 96h): 0/5
Cessation of beating, number of observations/total well numbers (0.1 µM, 96h): 0/5
EAD, number of observations/total well numbers (0.1 µM, 96h): 0/5
FPD (field-potential duration), % change from baseline (0.1 µM, 96h): 19.6±3.2%
FPDc (field-potential duration corrected by beat-rate), % change from baseline (0.1 µM, 96h): 11.8±4.2%
Flat T-wave-like, number of observations/total well numbers (0.1 µM, 96h): 0/5
BR (beat rate) % change from baseline (0.3 µM, 2h): -4±1%
